{"source": "patent US20150328277A1", "about": "(Teva Pharmaceutical Industries, Ltd., priority 2012, published 2015)", "origin": "cited, not measured here", "key": {"multiple sclerosis": {"tested_on": "multiple sclerosis", "conditions": "20 mg/day subcutaneous (s.c.); MS patients"}, "[1]": {"tested_on": "experimental autoimmune encephalomyelitis (EAE)", "conditions": "orally administered; rats"}, "[2]": {"tested_on": "experimental autoimmune encephalomyelitis (EAE)", "conditions": "orally administered; mice"}, "[3]": {"tested_on": "relapsing multiple sclerosis", "conditions": "administered orally; clinical trial"}}, "note": "Where two headings read alike, the source gives them in different places."}
{"substance": "L-glutamic acid polymer with L-alanine, L-lysine, L-tyrosine, acetate (salt) [glatiramer acetate]", "values": [{"measurement": "total number of enhancing lesions as measured by MRI", "setting": "multiple sclerosis", "value": "reduce the total number of enhancing lesions"}, {"measurement": "induction of EAE", "setting": "[1]", "value": "inhibited the induction of experimental autoimmune encephalomyelitis (EAE)"}, {"measurement": "induction of EAE", "setting": "[2]", "value": "inhibited the induction of experimental autoimmune encephalomyelitis (EAE)"}, {"measurement": "relapse rate or other clinical MRI parameters of disease activity", "setting": "[3]", "value": "did not affect relapse rate or other clinical MRI parameters of disease activity"}]}
